Measurements taken from patent publication US5244662A, “Medicinal extract from a mixture of Phellodendron and defatted seed of Croton, and method for it's manufacture” (Korea Green Cross Corporation, priority 1990, dated 1993).
Blank lines part the entries; values can stand above or below the compound they belong to.

Key:
L1210 (ATCC CCL 219) = test system: L1210 (ATCC CCL 219); set-up: species or system BDFI mice; conditions: mouse, in vivo
P388 (ATCC CCL 46) = test system: P388 (ATCC CCL 46); set-up: species or system BDFI mice; conditions: mouse, in vivo
[1] = treatment of osteoporosis; cited from earlier work
PO-GRSI cells = test: Steroid hormone synthesis of PO-GRSI; assay type: cell-based
Method: Granuloma cells play an important role in producing ovum in mammalian animals, and particularly secrete progesterone to enhance the proliferation of ovum. Granuloma cells metastasized artificially with carcinogenic genes (SV-40 and Ha-Ras) have the ability to synthesize both progesterone, the cell's original function and protein, and the original function of the carcinogenic gene. For the test, PO-GRSI and PA-GS6 were cultured in DMEM/F12(1:1) haematologic culture media containing insulin(2 μg/ml), transferin (5 μg/ml), hydrocortisone(40 μg/ml) and fibronectin(5 μg/ml), and the progesterone was analyzed by radioimmunoassay ([…]).
The antitumour activities of the extract obtained in Example 1 against Granuloma cells were determined also by evaluating its action on the progesterone and 20 alpha --OH-- progesterone synthesis of the captioned two kinds of cells. In the meantime, the action of FORSKOLIN to enhance the two steroid hormone syntheses were also checked.

granuloma cells = test: Action on primary granuloma cells (progesterone production); assay type: cell-based, rats
Method: Current antitumour drugs affect normal cellular growth as well as growth of tumour cells, whereby very careful therapeutic application of the agents has been required. […] The action of the present extract on spleen cells and granuloma cells was investigated to evaluate the action on normal cellular growth.
The spleen cells originated from BALB/C mice and were cultured in RPMI media under the condition of 7% CO2 /37° C. The granuloma cells originated from the ovum of young rats aged 25 days and were cultured in DMEM/F 12(1:1) media containing fetal bovine serum under the same conditions.

osteoporosis = test: Clinical trial in osteoporosis; assay type: in vivo, patient
Excerpt: (G-1) Clinical trial on a severe case whose vertebral density was just 0.332 g/cm^2 (29% of normal value), that is, corresponding to the 10th year from each menopause and the inability to walk over ten minutes. […]

SMILES: CO[C@@]12[C@H](COC(N)=O)C3=C(C(=O)C(C)=C(N)C3=O)N1C[C@@H]1N[C@@H]12 [mitomycin C]
- survival rate (%) (L1210 (ATCC CCL 219)): 135%
- survival time (L1210 (ATCC CCL 219)): 21 days
- survival rate (%) (P388 (ATCC CCL 46)): 130.4%
- survival time (P388 (ATCC CCL 46)): 21.6 days

SMILES: [F-].[Na+] [Sodium fluoride]
- adverse effects of nausea and gastric irritation [1]: About 30%
- rheumatic pain in leg joints [1]: 10%

- increase of 20 alpha-OH-progesterone synthesis over the control (PO-GRSI cells): 100 times
- increase of progesterone synthesis over the control (PO-GRSI cells): 60 times
SMILES: C=C[C@@]1(C)CC(=O)[C@]2(O)[C@@]3(C)[C@@H](O)CCC(C)(C)[C@@H]3[C@H](O)[C@H](OC(C)=O)[C@@]2(C)O1 [forskolin]
- progesterone secretion versus control (granuloma cells; forskolin): eight times that of the control
- progesterone (granuloma cells; forskolin 10^-4 M, control 109.6): 829.0 ng/mL

SMILES: CC#C[C@]1(O)CC[C@H]2[C@@H]3CCc4cc(O)ccc4[C@H]3CC[C@@]21C [Estrogen]
- vertebral density maintained (osteoporosis): 0.341 g/cm^2
